The source of these data is ChEMBL document CHEMBL1201862, “PubChem BioAssay data set” (2004).

Among the test systems are T47D; LOX IMVI; A549; SK-OV-3; IGROV-1; SNB-19; SNB-75; OVCAR-3; U-251; HOP-62; MOLT-4; HCC 2998; SK-MEL-28; OVCAR-4; NCI-H522; K562; HL-60; MDA-MB-231; HT-29; SW-620.
What all share (assay): NCI anticancer screen, dose series, 48 h

The structures appear in SMILES notation.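 Each compound was tested at five concentrations against cells in 96-well plates for 48 hours. GI50 = concentration required for 50% inhibition of growth.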 Active and inactive are the calls of the source. Cut-off read from the data, not from the text of the source: active = GI50 up to about 1.1 µM and inactive = higher. Bounds are passed on as bounds.

With `CN(C)CCNc1ccc2c(=O)n(CCN(C)C)c(=O)n3c4ccccc4c(=O)c1c23`, the GI50 with T47D was 0.133 µM (active); in the assay with LOX IMVI, 0.0624 µM (active); in the assay on A549 it was < 0.0216 µM (active); in the assay on SK-OV-3 it was < 0.0392 µM (active); in the assay with IGROV-1, 0.0404 µM (active); in the assay on SNB-19, 0.137 µM (active). Besides, the GI50 in the assay with SNB-75 is 0.0513 µM (active); in the assay on OVCAR-3, 0.218 µM (active); in the assay with U-251, 0.0402 µM (active); with HOP-62, 0.0185 µM (active); in the assay with MOLT-4 it was < 0.01 µM (active); with HCC 2998 it was < 0.0164 µM (active). The GI50 is 0.116 µM (active) in the assay with SK-MEL-28; 0.27 µM (active) in the assay on OVCAR-4; 0.0689 µM (active) with NCI-H522; 0.0133 µM (active) in the assay with K562; < 0.01 µM (active) with HL-60; 0.114 µM (active) with MDA-MB-231. Further, the GI50 in the assay with HT-29 was 0.0502 µM (active); in the assay with SW-620 it was < 0.0208 µM (active).
On to `N#CCc1nc(Cc2ccccc2)n[nH]1`, for which the GI50 in the assay on T47D, in the assay with LOX IMVI, in the assay with A549, in the assay with SK-OV-3, in the assay on IGROV-1 and in the assay with SNB-19 was > 100 µM (inactive) throughout. Besides, the GI50 with SNB-75, in the assay on OVCAR-3, in the assay on U-251, with HOP-62, with MOLT-4 and in the assay with HCC 2998 was > 100 µM (inactive) each time. The GI50 with SK-MEL-28, in the assay on OVCAR-4, with NCI-H522, with K562, with HL-60 and in the assay on MDA-MB-231 was > 100 µM (inactive) in each case. Besides, the GI50 in the assay on HT-29 and in the assay on SW-620 was > 100 µM (inactive) in each case.
For `OCCNCNc1nc(NCNCCO)nc(N(CNCCO)CNCCO)n1`, the GI50 is 23.7 µM (inactive) with T47D; 17 µM (inactive) with LOX IMVI; 27.2 µM (inactive) in the assay with A549; > 43.7 µM (inactive) in the assay on SK-OV-3; 22.6 µM (inactive) with IGROV-1; 17.1 µM (inactive) in the assay with SNB-19. The GI50 with SNB-75 was 24.7 µM (inactive); with OVCAR-3, 22.6 µM (inactive); with U-251 it was 21.1 µM (inactive); with HOP-62 it was 19.5 µM (inactive); in the assay on MOLT-4 it was 23.2 µM (inactive); in the assay on HCC 2998 it was 18.9 µM (inactive). The GI50 with SK-MEL-28 was 24.4 µM (inactive); in the assay with OVCAR-4, 25.9 µM (inactive); with NCI-H522 it was 21.3 µM (inactive); with K562 it was 19.9 µM (inactive); in the assay with HL-60 it was 20.5 µM (inactive); in the assay with MDA-MB-231 it was 22.8 µM (inactive). Further, the GI50 with HT-29 is 21.7 µM (inactive); in the assay with SW-620, 19.8 µM (inactive).
On to `O=C1c2ccccc2C(=O)c2sc(Nc3ccccc3Cl)nc21`, for which the GI50 in the assay with T47D was 11.1 µM (inactive); with LOX IMVI, 2.6 µM (inactive); in the assay with A549, 19.8 µM (inactive); in the assay with SK-OV-3, 19.5 µM (inactive); with IGROV-1, 13.9 µM (inactive); in the assay on SNB-19, 14.5 µM (inactive). For the same compound, the GI50 in the assay with SNB-75 is 13.6 µM (inactive); with OVCAR-3, 10.7 µM (inactive); with U-251, 4.93 µM (inactive); with HOP-62 it was 16.7 µM (inactive); in the assay with MOLT-4, 3.93 µM (inactive); in the assay on HCC 2998, 18.5 µM (inactive). Moreover, the GI50 was 15.1 µM (inactive) in the assay with SK-MEL-28; 8.18 µM (inactive) in the assay on OVCAR-4; 3.69 µM (inactive) in the assay with NCI-H522; 2.8 µM (inactive) in the assay with K562; 0.713 µM (active) in the assay on HL-60; 3.78 µM (inactive) with MDA-MB-231. Moreover, the GI50 in the assay on HT-29 is 21.5 µM (inactive); with SW-620 it was 4.15 µM (inactive).
With `Cc1c(C#N)c2nnn(-c3ccc(Cl)cc3)c(=O)n2c1-c1ccccc1`, the GI50 was 6.58 µM (inactive) in the assay on T47D; 0.221 µM (active) in the assay with LOX IMVI; 0.166 µM (active) with A549; 0.145 µM (active) in the assay on SK-OV-3; 0.113 µM (active) in the assay with IGROV-1; 0.195 µM (active) in the assay with SNB-19. In addition, the GI50 was 0.275 µM (active) in the assay with SNB-75; 0.047 µM (active) with OVCAR-3; 0.0815 µM (active) with U-251; 0.108 µM (active) in the assay on HOP-62; 0.063 µM (active) in the assay with MOLT-4; 0.0713 µM (active) with HCC 2998. The GI50 in the assay on SK-MEL-28 is 10.7 µM (inactive); in the assay with OVCAR-4 it was 0.351 µM (active); with NCI-H522, 0.0586 µM (active); in the assay on K562, 0.0586 µM (active); with HL-60 it was 0.0752 µM (active); with MDA-MB-231 it was 0.102 µM (active). Also, the GI50 in the assay with HT-29 is 0.0553 µM (active); with SW-620, 0.113 µM (active).
With `SCCSCCCSCCS`, the GI50 was 50.2 µM (inactive) in the assay with T47D; 47.5 µM (inactive) in the assay with LOX IMVI; > 100 µM (inactive) in the assay on A549; > 100 µM (inactive) with SK-OV-3; 49.2 µM (inactive) in the assay with IGROV-1; 71.9 µM (inactive) in the assay with SNB-19. Besides, the GI50 is 59.3 µM (inactive) in the assay on SNB-75; 76.4 µM (inactive) with OVCAR-3; > 100 µM (inactive) in the assay on U-251; > 100 µM (inactive) with HOP-62; 4.97 µM (inactive) in the assay with MOLT-4; > 100 µM (inactive) in the assay on HCC 2998. Further, the GI50 was > 100 µM (inactive) in the assay on SK-MEL-28; 14 µM (inactive) with OVCAR-4; 19.3 µM (inactive) with NCI-H522; 92.7 µM (inactive) with K562; 9.31 µM (inactive) with HL-60; 91.6 µM (inactive) with MDA-MB-231. The GI50 in the assay with HT-29 and with SW-620 was > 100 µM (inactive) in each case.
Regarding `CCN(C(=O)N[C@@H](C)C(=O)N[C@@H](Cc1ccccc1)C(=O)OC)c1ccccc1`, the GI50 was 56.8 µM (inactive) in the assay with T47D; 31.2 µM (inactive) in the assay on LOX IMVI; > 100 µM (inactive) in the assay with A549; > 100 µM (inactive) in the assay on SK-OV-3; 44.7 µM (inactive) in the assay with IGROV-1; > 100 µM (inactive) in the assay with SNB-19. The GI50 in the assay on SNB-75 was 54 µM (inactive); in the assay on OVCAR-3 it was 54.2 µM (inactive); with U-251, > 100 µM (inactive); with HOP-62 it was > 100 µM (inactive); in the assay on MOLT-4, > 100 µM (inactive); with HCC 2998 it was 81.5 µM (inactive). In addition, the GI50 in the assay with SK-MEL-28 was 33.2 µM (inactive); with OVCAR-4, 68.4 µM (inactive); in the assay on NCI-H522, 71.6 µM (inactive); in the assay on K562 it was 32 µM (inactive); in the assay on HL-60, 28.4 µM (inactive); in the assay with MDA-MB-231, > 100 µM (inactive). In addition, the GI50 in the assay with HT-29 and with SW-620 was > 100 µM (inactive) throughout.
